Consider 3 compounds from patent publication US11186547B2, “High-purity quinoline derivative and method for manufacturing same” (Eisai R&D Management Co., Ltd., priority 2014, dated 2021).

Data set [1] in a line: genotoxicity, consideration of the present inventors. Particulars: according to the consideration of the present inventors. An excerpt: (§1) The compound (A-1) is the starting material of the step A, but its solubility in organic solvents is low.
Data set [2] is described as follows: solubility in organic solvents. The data set is classed as physicochemical.
Source text: as §1

For data set [3] the following is noted: Workplace Safety Site, Public Notice No. 166 of Mar. 27, 2012; cited from earlier work.
Data set [4] is described as follows: decomposition on heating after dissolution in a solvent. The data set is classed as physicochemical. The conditions noted are these: heated after dissolved in a solvent.

Turning to `COc1cc2nccc(Cl)c2cc1C(N)=O` [compound (A-1), 4-chloro-7-methoxy-quinoline-6-carboxamide], the genotoxicity result in data set [1] was “possibility that the compound (A-1) exhibits genotoxicity”. Also, the “solubility in organic solvents” value in data set [2] is reported as “low”.

Consider `COc1cc2nccc(Oc3ccc(N)c(Cl)c3)c2cc1C(N)=O` [compound (I), 4-(4-Amino-3-chlorophenoxy)-7-methoxy-quinoline-6-carboxamide], for which the mutagenicity entry in data set [3] is listed as “strong mutagenicity was recognized”.

On to `COc1cc2nccc(Oc3ccc(NC(=O)NC4CC4)c(Cl)c3)c2cc1C(N)=O` [methanesulfonate of the compound (IV), 4-[3-chloro-4-(cyclopropylaminocarbonyl)aminophenoxy]-7-methoxy-6-quinoline-carboxamide Methanesulfonate], for which, in data set [4], the decomposition product formed result was “the compound (I) is formed as a decomposition product”.
